Like-named read-outs stand apart in the source and are kept apart here.
Experiments:
NE transporters [h(NET)] = molecular target: T1, NE transporters [h(NET)] (Homo sapiens, UniProt P23975); assay: Inhibition of [3H]norepinephrine uptake into HEK293 cells stably expressing hNET; assay type: cell-based; conditions: for IC50: HEK293-hNET, mean ± standard error of three independent experiments, read-out: monoamine uptake inhibition IC50 [3H]NE; for selectivity for inhibition of NE over DA uptake: ratio of uptake IC50 values
T1 construct: expressed in transfected cells; host or cells: HEK-293
T1 sequence (P23975 whole entry): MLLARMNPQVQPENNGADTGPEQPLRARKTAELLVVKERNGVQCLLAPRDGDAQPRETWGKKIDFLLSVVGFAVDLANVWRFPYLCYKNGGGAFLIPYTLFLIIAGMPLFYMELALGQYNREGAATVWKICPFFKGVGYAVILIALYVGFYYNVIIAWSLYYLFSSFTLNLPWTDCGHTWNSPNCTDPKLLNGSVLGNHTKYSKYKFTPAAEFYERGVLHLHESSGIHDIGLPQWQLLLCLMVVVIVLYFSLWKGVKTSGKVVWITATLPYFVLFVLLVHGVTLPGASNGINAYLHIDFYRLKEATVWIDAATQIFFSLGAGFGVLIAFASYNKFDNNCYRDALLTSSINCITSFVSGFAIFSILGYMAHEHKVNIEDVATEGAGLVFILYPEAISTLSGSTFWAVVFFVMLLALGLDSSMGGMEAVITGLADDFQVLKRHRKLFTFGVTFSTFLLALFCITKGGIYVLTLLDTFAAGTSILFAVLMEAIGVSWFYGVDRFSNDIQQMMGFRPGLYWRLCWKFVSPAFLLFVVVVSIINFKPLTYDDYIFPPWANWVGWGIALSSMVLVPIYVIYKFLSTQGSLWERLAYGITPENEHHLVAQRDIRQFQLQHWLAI
Source text: (§1) Cell Lines and Culture: Human embryonic kidney (HEK-293) cells stably expressing human DAT, NET or SERT were maintained as previously described in Eshleman, A. J.; Carmolli, M.; Cumbay, M.; Martens, C. R.; Neve, K. A.; Janowsky, A., J. Pharmacol. Exp. Ther. 1999, 289, (2), 877-885. Use was made of several human cell lines that naturally or heterologously express specific, functional, human nAChR subtypes. Cells of the TE671/RD line naturally expresses muscle-type nAChR (a1β1γδ- or α1*-nAChR), and SH-SY5Y neuroblastoma cells naturally expresses autonomic α3β4*-nAChRs (containing α3, β4, probably α5, and sometimes β2 subunits). Different clones of SH-EP1 epithelial cell lines have been engineered to heterologously express either α4β2-nAChR, which are thought to be the most abundant, high affinity nicotine-binding nAChR in mammalian brain, or α4β4-nAChR, another possible brain nAChR subtype (SH-EP1-hα4β2 or α4β4 cells, respectively). These cells were maintained as low passage number (1-26 from our frozen stocks) cultures to ensure stable expression of native or heterologously-expressed nAChR as previously described (see Lukas, R. J.; Fryer, J. D.; Eaton, J. B.; L., G. C., Some methods for studies of nicotinic acetylcholine receptor pharmacology, in Nicotinic receptors and the Nervous System, Levine, E. D., Ed. CRC Press: Boca Raton, 2002; pp 3-27, incorporated herein by reference in its entirety). Cells were passaged once weekly by splitting just-confluent cultures 1/300 (TE671/RD), 1/5 (SH-SY5Y), or 1/20 (transfected SH-EP1) in serum-supplemented medium to maintain log-phase growth.
See, for example, Damaj, M. I.; Carroll, F. I.; Eaton, J. B.; Navarro, H. A.; Blough, B. E.; Mirza, S.; Lukas, R. J.; Martin, B. R., Mol. Pharmacol. 2004, 66, (3), 675-682 and Eshleman, A. J.; Carmolli, M.; Cumbay, M.; Martens, C. R.; Neve, K. A.; Janowsky, A., J. Pharmacol. Exp. Ther. 1999, 289, (2), 877-885, both incorporated by reference herein in their entireties.

α3β4*-nAChR = molecular target: T2, α3β4*-nAChR (Homo sapiens, UniProt P30926+P32297); assay: 86Rb+ efflux nAChR functional assay, SH-SY5Y cells; assay type: cell-based; conditions: EC80-EC90 carbamylcholine; SH-SY5Y; parentheses = S.E.M. as multiplication/division factor; read-out: nAChR inhibition IC50 α3β4±
T2 construct: other: EC80-EC90 carbamylcholine; SH-SY5Y; parentheses = S.E.M. as multiplication/division
T2 sequence (P32297 32-505): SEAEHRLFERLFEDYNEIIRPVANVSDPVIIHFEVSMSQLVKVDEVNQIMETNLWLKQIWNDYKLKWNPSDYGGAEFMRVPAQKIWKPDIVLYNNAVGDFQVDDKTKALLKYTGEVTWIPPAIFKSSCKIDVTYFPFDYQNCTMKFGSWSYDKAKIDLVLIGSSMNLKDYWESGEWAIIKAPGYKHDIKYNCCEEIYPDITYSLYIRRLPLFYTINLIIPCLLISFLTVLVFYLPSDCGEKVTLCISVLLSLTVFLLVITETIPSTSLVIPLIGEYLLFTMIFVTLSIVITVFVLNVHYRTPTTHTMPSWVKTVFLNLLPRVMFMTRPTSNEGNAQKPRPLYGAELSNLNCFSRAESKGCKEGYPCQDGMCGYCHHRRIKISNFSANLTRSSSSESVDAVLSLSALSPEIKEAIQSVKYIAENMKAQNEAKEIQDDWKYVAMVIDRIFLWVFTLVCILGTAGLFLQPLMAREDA
T2 sequence (P30926 22-498): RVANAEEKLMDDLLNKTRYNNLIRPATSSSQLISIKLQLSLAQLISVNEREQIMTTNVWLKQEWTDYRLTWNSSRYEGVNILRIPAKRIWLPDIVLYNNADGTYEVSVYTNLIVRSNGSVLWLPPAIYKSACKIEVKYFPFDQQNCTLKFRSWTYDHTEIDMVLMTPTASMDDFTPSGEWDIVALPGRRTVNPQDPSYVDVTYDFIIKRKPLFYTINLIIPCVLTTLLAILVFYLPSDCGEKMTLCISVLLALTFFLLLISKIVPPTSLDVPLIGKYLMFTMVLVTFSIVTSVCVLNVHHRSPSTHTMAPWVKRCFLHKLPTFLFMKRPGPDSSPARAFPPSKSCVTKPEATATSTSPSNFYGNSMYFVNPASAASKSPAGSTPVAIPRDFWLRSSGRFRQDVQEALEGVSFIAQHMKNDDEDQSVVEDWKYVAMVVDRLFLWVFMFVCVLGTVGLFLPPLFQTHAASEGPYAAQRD
Source text: as §1
(§2) After cells had adhered (generally overnight, but no sooner than 4 h later), the medium was removed and replaced with 250 μL per well of complete medium supplemented with ˜350,000 cpm of ^86Rb^+ (PerkinElmer Life and Analytical Sciences, Boston, Mass.) and counted at 40% efficiency using Cerenkov counting (TriCarb 1900 liquid scintillation analyzer[…]; PerkinElmer Life Sciences).
(§3) After at least 4 h and typically overnight, ^86Rb^+ efflux was measured using the “flip-plate” technique. See Lukas, R. J.; Fryer, J. D.; Eaton, J. B.; L., G. C., Some methods for studies of nicotinic acetylcholine receptor pharmacology, in Nicotinic receptors and the Nervous System, Levine, E. D., Ed. CRC Press: Boca Raton, 2002; pp 3-27, incorporated herein by reference in its entirety). Briefly, after aspiration of the bulk of ^86Rb^+ loading medium from each well of the “cell plate,” each well containing cells was rinsed 3× with 2 mL of fresh ^86Rb^+ efflux buffer (130 mM NaCl, 5.4 mM KCl, 2 mM CaCl2, 5 mM glucose, 50 mM HEPES, pH 7.4) to remove extracellular ^86Rb^+. Following removal of residual rinse buffer by aspiration, the flip-plate technique was used again to simultaneously introduce 1.5 mL of fresh efflux buffer containing drugs of choice at indicated final concentrations from a 24-well “efflux/drug plate” into the wells of the cell plate. After a 5 min incubation, the solution was “flipped” back into the efflux/drug plate, and any remaining buffer in the cell plate was removed by aspiration. Cells remaining in the cell plate were lysed and suspended by addition of 1.5 mL of 0.1 M NaOH, 0.1% sodium dodecyl sulfate to each well.
(§4) Similarly, the sum of ^86Rb^+ in cell plates and efflux/drug plates also determined the efficiency of ^86Rb^+ loading (the percentage of applied ^86Rb^+ actually loaded into cells).
(§5) Specific efflux was then taken as the difference in control samples between total and non-specific ^86Rb^+ efflux. Any intrinsic agonist activity of test drugs was ascertained using samples containing test drug only at different concentrations and was normalized, after subtraction of non-specific efflux, to specific efflux in test drug-free, control samples.

α4β2-nAChR = molecular target: T3, α4β2-nAChR (Homo sapiens, UniProt P17787+P43681); assay: 86Rb+ efflux nAChR functional assay, SH-EP1-hα4β2 cells; assay type: cell-based
T3 construct: expressed in transfected cells; host or cells: SH-EP1 epithelial cells (SH-EP1-hα4β2)
T3 sequence (P43681 29-627 limits assumed): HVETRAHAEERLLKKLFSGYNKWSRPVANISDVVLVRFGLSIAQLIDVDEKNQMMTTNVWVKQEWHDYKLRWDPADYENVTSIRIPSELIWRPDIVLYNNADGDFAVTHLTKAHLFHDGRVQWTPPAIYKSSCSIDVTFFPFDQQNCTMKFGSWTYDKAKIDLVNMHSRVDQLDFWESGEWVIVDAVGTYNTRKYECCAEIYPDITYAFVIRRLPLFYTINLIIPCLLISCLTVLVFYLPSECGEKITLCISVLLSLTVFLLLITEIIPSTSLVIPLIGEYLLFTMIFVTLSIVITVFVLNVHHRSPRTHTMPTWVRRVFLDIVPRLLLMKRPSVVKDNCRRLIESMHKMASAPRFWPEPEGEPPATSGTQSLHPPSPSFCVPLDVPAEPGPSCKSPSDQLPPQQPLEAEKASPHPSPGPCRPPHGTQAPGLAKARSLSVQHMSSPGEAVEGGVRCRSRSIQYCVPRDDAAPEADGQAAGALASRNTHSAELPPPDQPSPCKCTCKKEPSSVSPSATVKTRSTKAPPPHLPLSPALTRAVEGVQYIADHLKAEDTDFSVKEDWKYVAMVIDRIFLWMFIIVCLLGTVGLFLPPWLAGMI
T3 sequence (P17787 26-502): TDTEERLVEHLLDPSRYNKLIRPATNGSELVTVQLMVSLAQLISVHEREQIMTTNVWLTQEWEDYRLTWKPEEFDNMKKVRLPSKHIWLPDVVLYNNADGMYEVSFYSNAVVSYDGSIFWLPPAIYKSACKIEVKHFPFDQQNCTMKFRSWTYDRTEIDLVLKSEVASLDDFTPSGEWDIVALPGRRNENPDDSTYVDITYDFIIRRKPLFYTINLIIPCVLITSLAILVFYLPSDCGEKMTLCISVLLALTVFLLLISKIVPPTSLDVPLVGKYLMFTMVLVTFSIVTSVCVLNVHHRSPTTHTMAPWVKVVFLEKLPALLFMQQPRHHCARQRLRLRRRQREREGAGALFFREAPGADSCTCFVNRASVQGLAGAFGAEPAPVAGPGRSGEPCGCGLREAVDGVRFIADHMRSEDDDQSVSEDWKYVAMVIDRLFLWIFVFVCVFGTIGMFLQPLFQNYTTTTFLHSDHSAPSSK
Source text: as §1, §2, §3, §4, §5

α4β4-nAChR = molecular target: T4, α4β4-nAChR (Homo sapiens, UniProt P30926+P43681); assay: 86Rb+ efflux nAChR functional assay, SH-EP1-hα4β4 cells; assay type: cell-based; conditions: EC80-EC90 carbamylcholine, parentheses = S.E.M. as multiplication/division factor, read-out: nAChR inhibition IC50 α4β4
T4 construct: expressed in transfected cells; host or cells: SH-EP1 epithelial cells (SH-EP1-hα4β4)
T4 sequence (P43681 29-627 limits assumed): as the sequence (P43681 29-627 limits assumed) above
T4 sequence (P30926 22-498): as the sequence (P30926 22-498) above
Source text: as §1, §2, §3, §4, §5

[1] = molecular target: T5, muscle-type nAChR (α1β1γδ- or α1*-nAChR) (Homo sapiens, UniProt P02708+P07510+P11230+Q07001); assay: 86Rb+ efflux nAChR functional assay, TE671/RD cells; assay type: cell-based; conditions: parentheses = S.E.M. as multiplication/division factor
T5 construct: Cells of the TE671/RD line naturally expresses muscle-type nAChR; endogenous in cells; host or cells: TE671/RD cells
T5 sequence (P02708 21-457): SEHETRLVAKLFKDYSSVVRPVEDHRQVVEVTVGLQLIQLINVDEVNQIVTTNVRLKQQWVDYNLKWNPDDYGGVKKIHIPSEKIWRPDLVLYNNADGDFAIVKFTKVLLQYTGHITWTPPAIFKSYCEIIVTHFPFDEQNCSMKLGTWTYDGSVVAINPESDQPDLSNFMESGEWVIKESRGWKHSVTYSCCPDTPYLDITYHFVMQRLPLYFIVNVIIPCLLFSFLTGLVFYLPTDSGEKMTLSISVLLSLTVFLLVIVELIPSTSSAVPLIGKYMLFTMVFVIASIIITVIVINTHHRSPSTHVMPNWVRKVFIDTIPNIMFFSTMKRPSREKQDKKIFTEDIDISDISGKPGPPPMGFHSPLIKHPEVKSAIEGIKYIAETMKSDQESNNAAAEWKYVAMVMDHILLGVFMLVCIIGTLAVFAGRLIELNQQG
T5 sequence (P11230 24-501): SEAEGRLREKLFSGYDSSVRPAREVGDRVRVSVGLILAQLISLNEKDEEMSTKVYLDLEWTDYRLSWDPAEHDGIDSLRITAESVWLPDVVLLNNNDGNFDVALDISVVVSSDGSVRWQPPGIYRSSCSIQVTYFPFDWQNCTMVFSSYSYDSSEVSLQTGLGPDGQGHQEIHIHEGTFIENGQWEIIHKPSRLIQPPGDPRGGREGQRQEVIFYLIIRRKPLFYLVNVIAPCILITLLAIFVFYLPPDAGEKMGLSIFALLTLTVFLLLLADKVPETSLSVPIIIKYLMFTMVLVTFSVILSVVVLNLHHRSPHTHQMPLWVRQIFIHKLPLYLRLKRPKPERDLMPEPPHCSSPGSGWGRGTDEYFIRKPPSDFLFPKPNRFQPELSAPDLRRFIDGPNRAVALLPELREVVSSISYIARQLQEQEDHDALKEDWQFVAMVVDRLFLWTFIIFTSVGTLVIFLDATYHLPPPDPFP
T5 sequence (P07510 23-517): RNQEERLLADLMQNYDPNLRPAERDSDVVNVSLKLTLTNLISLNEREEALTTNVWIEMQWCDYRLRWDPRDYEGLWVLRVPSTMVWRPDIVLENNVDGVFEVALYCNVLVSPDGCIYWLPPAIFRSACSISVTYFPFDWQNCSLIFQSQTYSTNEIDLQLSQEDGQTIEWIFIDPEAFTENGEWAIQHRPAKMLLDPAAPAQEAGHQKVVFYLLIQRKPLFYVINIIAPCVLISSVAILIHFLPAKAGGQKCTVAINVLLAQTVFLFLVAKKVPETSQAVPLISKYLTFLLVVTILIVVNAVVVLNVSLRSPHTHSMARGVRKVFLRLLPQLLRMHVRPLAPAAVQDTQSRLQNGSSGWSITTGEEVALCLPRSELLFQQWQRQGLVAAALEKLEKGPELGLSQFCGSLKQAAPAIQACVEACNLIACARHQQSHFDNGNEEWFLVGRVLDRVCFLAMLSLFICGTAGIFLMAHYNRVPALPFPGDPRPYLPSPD
T5 sequence (Q07001 22-517): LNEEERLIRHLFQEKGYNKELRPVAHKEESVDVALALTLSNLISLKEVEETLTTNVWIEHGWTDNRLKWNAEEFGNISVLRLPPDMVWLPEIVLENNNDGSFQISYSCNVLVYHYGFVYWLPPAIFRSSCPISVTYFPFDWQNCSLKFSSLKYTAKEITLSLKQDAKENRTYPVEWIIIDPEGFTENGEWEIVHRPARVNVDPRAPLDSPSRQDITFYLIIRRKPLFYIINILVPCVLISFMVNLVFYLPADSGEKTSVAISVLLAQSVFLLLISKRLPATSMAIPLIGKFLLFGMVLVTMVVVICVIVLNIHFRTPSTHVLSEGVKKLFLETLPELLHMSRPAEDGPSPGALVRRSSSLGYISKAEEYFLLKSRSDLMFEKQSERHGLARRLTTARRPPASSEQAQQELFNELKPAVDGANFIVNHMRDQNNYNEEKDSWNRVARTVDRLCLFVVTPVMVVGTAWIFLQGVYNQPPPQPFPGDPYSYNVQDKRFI
Source text: as §1, §2, §3, §4, §5

[2] = test system: Male Institute of Cancer Research (ICR) mice; assay: Locomotor activity, antagonism of nicotine effect; assay type: in vivo; conditions: for AD50 Locomotion: pretreatment 15 min before nicotine […] s.c.
Source text: Animals: Male Institute of Cancer Research (ICR) mice (weighing 20-25 g) obtained from Harlan (Indianapolis, Ind.) were used throughout the study. Animals were housed in an Association for Assessment and Accreditation of Laboratory Animal Care-approved facility, were placed in groups of six, and had free access to food and water. Studies were approved by the Institutional Animal Care and Use Committee of Virginia Commonwealth University.
Locomotor Activity: Mice were placed into individual Omnitech photocell activity cages (28×16.5 cm; Omnitech Electronics, Columbus, Ohio) 5 min after subcutaneous administration of either 0.9% saline or nicotine (1.5 mg/kg). Interruptions of the photocell beams (two banks of eight cells each) were then recorded for the next 10 min. Data were expressed as the number of photocell interruptions.

[3] = EC80-EC90 carbamylcholine, SH-EP1-hα4β2, parentheses = S.E.M. as multiplication/division factor, read-out: nAChR inhibition IC50 α4β2
[4] = EC80-EC90 carbamylcholine, read-out: nAChR inhibition IC50 α1*β1
[5] = nAChR inhibition IC50 α1*β1, EC80-EC90 carbamylcholine

Row | Compound | IC50 (NE transporters [h(NET)]) [nM] | selectivity for inhibition of NE over DA uptake (NE transporters [h(NET)]) [fold] | IC50 (α3β4*-nAChR) [µM] | selectivity for inhibition of α4β2-nAChR over DA uptake inhibition (α4β2-nAChR) [fold] | IC50 (α4β2-nAChR; [3]) [µM] | IC50 (α4β4-nAChR) [µM] | IC50 [1, 4] [µM] | IC50 [1, 5] [µM] | ED50 ([2]; Mus musculus, pretreatment 15 min before nicotine 1.5 mg/kg s.c., read-out: AD50 Locomotion) [mg/kg] | AD50 Locomotion [2] | IC50 (α4β2-nAChR) [µM] | selectivity for α4β2-nAChR over other nAChR subtypes (α4β2-nAChR) [fold]
1 | C[C@@H]1NC(C)(C)CO[C@@]1(O)c1cccc(Br)c1 [Compound 4d, (2S,3S)-2-(3-Bromophenyl)-3,5,5-trimethylmorpholin-2-ol] | 920 ± 300 | ~3.6 | 3.2 | ~6 | 0.55 | 30 | 18 | 5.9 to 19 | 2.6 | 2.6 mg/kg |  | 
2 | COc1cccc([C@]2(O)OCC(C)(C)N[C@H]2C)c1 [Compound 4f, (2S,3S)-2-(3-Methoxyphenyl)-3,5,5-trimethylmorpholin-2-ol] | 3000 ± 900 | 5 | 11 |  | 10 | > 100 | 49 |  |  | IA (IA: AD50 > 15 mg/kg) | < 10 | 
3 | C[C@@H]1N(C)C(C)(C)CO[C@@]1(O)c1cccc(Cl)c1 [Compound 4u, (2S,3S)-2-(3-Chlorophenyl)-3,4,5,5-tetramethylmorpholin-2-ol] | 415 ± 9 |  | 6.5 |  | 7.1 | 43 | 57 | > 33 |  | IA (IA: AD50 > 15 mg/kg) |  | 
4 | C[C@@H]1NC(C)(C)CO[C@@]1(O)c1ccccc1 [Compound 4b, (2S,3S)-2-Phenyl-3,5,5-trimethylmorpholin-2-ol] | 550 ± 90 |  | 8.9 |  | 6.4 | 92 |  | > 100 |  | IA (IA: AD50 > 15 mg/kg) | < 10 | 
5 | C[C@@H]1NC(C)(C)CO[C@@]1(O)c1ccc(F)c(F)c1 [Compound 4m, (2S,3S)-2-(3,4-Difluorophenyl)-3,5,5-trimethylmorpholin-2-ol] | 740 ± 110 |  | 11.9 |  | 12 | > 100 | 36 |  |  | IA (IA: AD50 > 15 mg/kg) |  | 
6 | C[C@@H]1NC(C)(C)CO[C@@]1(O)c1cccc([N+](=O)[O-])c1 [Compound 4g, (2S,3S)-2-(3-Nitrophenyl)-3,5,5-trimethylmorpholin-2-ol] | 1210 ± 340 | 10 | 14 |  | 4.8 | 80 | 96 |  |  | IA (IA: AD50 > 15 mg/kg) | < 10 | ~3

From patent US8906908B2, “Hydroxybupropion analogues for treating drug dependence” (priority 2010, dated 2014)
